Measured values taken from patent US12377068B2, “In vitro and xenograft anti-tumor activity of a halogenated-xanthene against refractory pediatric solid tumors” (Provectus Pharmatech, Inc., priority 2018, dated 2025).

How the values were obtained:
[1] = rat; cited from earlier work
SK-N-MC = experiment: combination studies with PV-10, alamar Blue; type: cell-based; details: in combination with 50 μM PV-10, 96 hours
Experimental: (§1) Cells were cultured as described for cytotoxicity assays. A dilution series of three test drugs (doxorubicin, etoposide, vincristine) were prepared in DMEM containing either PBS (vehicle control) or PV10 (50 µM final) and added to cells in triplicate. Plates were cultured, washed and cell viability analyzed by alamar Blue®, as described for cytotoxicity assays. Combination indices (CI) for IC50 of test drug in combination with 50 µM PV-10 were calculated using CompuSyn software (ComboSyn Inc.). CI values were scored according to the following criteria CI<1 indicated synergistic activity, CI=1 indicated additive activity and CI>1 indicated […].

SK-N-AS = experiment: combination studies with PV-10, alamar Blue; type: cell-based; details: in combination with 50 μM PV-10, 96 hours
Experimental: as §1

IMR5 = experiment: combination studies with PV-10, alamar Blue; type: cell-based; details: IMR5, in combination with 50 μM PV-10, 96 hours
Experimental: as §1

SK-N-BE(2) = experiment: combination studies with PV-10, alamar Blue; type: cell-based; details: in combination with 50 μM PV-10, 96 hours
Experimental: as §1

[2] = test system: SK-N-AS, SK-N-BE (2), IMR5 and SK-N-MC cells; experiment: combination studies with PV-10, summary over cell lines; type: cell-based; details: in combination, 96 hours
Experimental: as §1

SMILES	in vivo biological lifetime [1]	combination index (CI) for IC50 of test drug (SK-N-MC)	combination index (CI) for IC50 of test drug (SK-N-AS)	combination index (CI) for IC50 of test drug (IMR5)	combination index (CI) for IC50 of test drug (SK-N-BE(2))	CI values, range over the cell lines [2]
O=C([O-])c1c(Cl)c(Cl)c(Cl)c(Cl)c1-c1c2cc(I)c(=O)c(I)c-2oc2c(I)c([O-])c(I)cc12.[Na+].[Na+] [Rose Bengal, 4,5,6,7-tetrachloro-2′,4′,5′,7′-tetraiodofluorescein disodium]	a few minutes	–	–	–	–	–
COc1cc([C@@H]2c3cc4c(cc3[C@@H](O[C@@H]3O[C@@H]5CO[C@@H](C)O[C@H]5[C@H](O)[C@H]3O)[C@H]3COC(=O)[C@H]23)OCO4)cc(OC)c1O [Etoposide, etoposide]	–	0.58	0.17	0.65	0.66	0.17-0.66
COc1cccc2c1C(=O)c1c(O)c3c(c(O)c1C2=O)C[C@@](O)(C(=O)CO)C[C@@H]3O[C@H]1C[C@H](N)[C@H](O)[C@H](C)O1 [Doxorubicin, doxorubicin]	–	0.42	0.77	0.38	0.72	0.42-0.77
CC[C@]1(O)C[C@H]2CN(CCc3c([nH]c4ccccc34)[C@@](C(=O)OC)(c3cc4c(cc3OC)N(C=O)[C@H]3[C@@](O)(C(=O)OC)[C@H](OC(C)=O)[C@]5(CC)C=CCN6CC[C@]43[C@@H]65)C2)C1 [Vincristine, vincristine]	–	0.43	0.35	0.2	0.1	0.1-0.43
